Among the data in ChEMBL document CHEMBL1151398, “New taxanes from Taxus brevifolia” (1982) are Activity and EC50 values, retold here.

For one experiment, the system named is KB. Briefly: Cytotoxicity against human KB cells. It counts as functional. Also on record: concentration or dose not given beside the values.
The subject of another experiment is Astrocyte. Briefly: Astrocyte reversal activity in astrocytes. It counts as functional. The conditions noted are these: read-out: ED50 (the source's name).

For `CC(=O)O[C@@]12CO[C@@H]1C[C@H](O)[C@@]1(C)C(=O)[C@H](O)C3=C(C)[C@@H](O)C[C@@](O)([C@@H](OC(=O)c4ccccc4)[C@H]21)C3(C)C`, the Activity in the experiment on KB worked out at 16%. Besides, in the experiment with Astrocyte, the EC50 was 1 µg/mL.
The matching figures for `CC(=O)O[C@H]1C(=O)[C@]2(C)[C@@H](OC(C)=O)C[C@H]3OC[C@@]3(OC(C)=O)[C@H]2[C@H](OC(=O)c2ccccc2)[C@]2(O)C[C@H](OC(=O)[C@H](OC(C)=O)[C@@H](NC(=O)c3ccccc3)c3ccccc3)C(C)=C1C2(C)C`: 16% and 0.03 µg/mL.
As to `CC(=O)O[C@H]1C[C@H]2OC[C@@]2(OC(C)=O)[C@H]2[C@H](OC(=O)c3ccccc3)[C@]3(O)C[C@H](OC(=O)[C@H](OC(C)=O)[C@@H](NC(=O)c4ccccc4)c4ccccc4)C(C)=C([C@@H](O)C(=O)[C@]12C)C3(C)C`, the Activity in the experiment with KB is 16%. In addition, the EC50 in the experiment with Astrocyte was under 0.01 µg/mL.
The like results for `C=C1[C@@H](O)C[C@H](OC(C)=O)[C@@]2(C)[C@@H](OC(C)=O)[C@H](OC(C)=O)C3=C(C)[C@@H](OC(C)=O)C[C@@H]([C@@H](OC(C)=O)[C@H]12)C3(C)C` [DECINNAMOYLTAXININE J] were, in that order, 16% and 28 µg/mL.
The matching figures for `CC(=O)O[C@H]1C(=O)[C@@]2(C)[C@H]([C@H](OC(=O)c3ccccc3)[C@]3(O)C[C@H](OC(=O)[C@H](O)[C@@H](NC(=O)c4ccccc4)c4ccccc4)C(C)=C1C3(C)C)[C@]1(OC(C)=O)CO[C@@H]1C[C@@H]2O` [PACLITAXEL]: 31% and under 0.01 µg/mL.
